Assay results taken from ChEMBL document CHEMBL3885861, “Open TG-GATES”.

Species on record: Rattus norvegicus
Assay: Open TG-GATES - Regimen: Daily Repeat
Type: toxicity, organism-based, Sprague-Dawley
Set-up: regimen Daily Repeat, gender Male, age 6 weeks
Conditions: in vivo, po, 50 mg/kg, route gavage, dose level High; for APTT / Bas / Eos / Fbg / Hb / Ht / Lym / MCH / MCHC / MCV / Mono / Neu / PT / Plat / RBC / Ret / WBC: tissue Blood; for KIDNEY_L / KIDNEY_R / KIDNEY_TOTAL: tissue Kidney; for LIVER: tissue Liver; for A/G / ALP / ALT / AST / BUN / CRE / Ca / Cl / DBIL / GLC / IP / K / LDH / Na / PL / RALB / TBIL / TC / TG / TP / gamma-GTP: tissue Plasma

For `CC1=C(CC(=O)O)c2cc(F)ccc2/C1=C\c1ccc([S+](C)[O-])cc1` (configuration not stated), the TERMINAL_BW (72 h, time 3 day) was 223.6 g, the APTT (72 h, time 3 day) was 18.5 s and the Bas (72 h, time 3 day) was 0.2%. The Eos (72 h, time 3 day) was 1.2%, the Fbg (72 h, time 3 day) was 396.2 mg/dL and the Hb (72 h, time 3 day) was 13.9 g/dL. It also gave a Ht (72 h, time 3 day) of 41.6%, a Lym (72 h, time 3 day) of 71.2% and an MCH (72 h, time 3 day) of 20.7 pg. It also gave an MCHC (72 h, time 3 day) of 33.3%, an MCV (72 h, time 3 day) of 62.3 fL and a Mono (72 h, time 3 day) of 3.4%. The Neu (72 h, time 3 day) was 24%, the PT (72 h, time 3 day) was 13.3 s and the Plat (72 h, time 3 day) was 112.6 x10_4/uL. The RBC (72 h, time 3 day) was 668 x10_4/ul, the Ret (72 h, time 3 day) was 6% and the WBC (72 h, time 3 day) was 137.2 x10_2/uL. The KIDNEY_L (72 h, time 3 day) was 1 g, the KIDNEY_R (72 h, time 3 day) was 1 g and the KIDNEY_TOTAL (72 h, time 3 day) was 2 g. For the same compound, the LIVER (72 h, time 3 day) was 11 g, the A/G (72 h, time 3 day) was 0.9 and the ALP (72 h, time 3 day) was 1504.6 IU/L. It also gave an ALT (72 h, time 3 day) of 38.2 IU/L, an AST (72 h, time 3 day) of 63 IU/L and a BUN (72 h, time 3 day) of 15.6 mg/dL. For the same compound, the CRE (72 h, time 3 day) was 0.2 mg/dL, the Ca (72 h, time 3 day) was 11 mg/dL and the Cl (72 h, time 3 day) was 106.8 meq/L. For the same compound, the DBIL (72 h, time 3 day) was 0.008 mg/dL, the GLC (72 h, time 3 day) was 178.4 mg/dL and the IP (72 h, time 3 day) was 6.5 mg/dL. It also gave a K (72 h, time 3 day) of 4.2 meq/L, an LDH (72 h, time 3 day) of 96.4 IU/L and a Na (72 h, time 3 day) of 141.8 meq/L. For the same compound, the PL (72 h, time 3 day) was 164.4 mg/dL, the RALB (72 h, time 3 day) was 2.6 g/dL and the TBIL (72 h, time 3 day) was 0.016 mg/dL. For the same compound, the TC (72 h, time 3 day) was 91.2 mg/dL, the TG (72 h, time 3 day) was 129.8 mg/dL and the TP (72 h, time 3 day) was 5.4 g/dL. It also gave a gamma-GTP (72 h, time 3 day) of 1.2 IU/L, a TERMINAL_BW ([…], time 7 day) of 211.2 g and a TERMINAL_BW ([…], time 14 day) of 263.8 g. It also gave a TERMINAL_BW ([…], time 28 day) of 295.9 g, an APTT ([…], time 7 day) of 16.7 s and a Bas ([…], time 7 day) of 0.6%. It also gave an Eos ([…], time 7 day) of 1.2%, a Fbg ([…], time 7 day) of 522.6 mg/dL and a Hb ([…], time 7 day) of 11.5 g/dL. It also gave a Ht ([…], time 7 day) of 35.1%, a Lym ([…], time 7 day) of 55% and an MCH ([…], time 7 day) of 20.8 pg. For the same compound, the MCHC ([…], time 7 day) was 32.8%, the MCV ([…], time 7 day) was 63.4 fL and the Mono ([…], time 7 day) was 3.8%. For the same compound, the Neu ([…], time 7 day) was 38.8%, the PT ([…], time 7 day) was 13 s and the Plat ([…], time 7 day) was 252.7 x10_4/uL. It also gave an RBC ([…], time 7 day) of 553.6 x10_4/ul, a Ret ([…], time 7 day) of 11.8% and a WBC ([…], time 7 day) of 207.1 x10_2/uL. For the same compound, the APTT ([…], time 14 day) was 25.1 s, the Bas ([…], time 14 day) was 0% and the Eos ([…], time 14 day) was 1.7%. It also gave a Fbg ([…], time 14 day) of 447 mg/dL, a Hb ([…], time 14 day) of 10.8 g/dL and a Ht ([…], time 14 day) of 33.6%. The Lym ([…], time 14 day) was 56%, the MCH ([…], time 14 day) was 20.6 pg and the MCHC ([…], time 14 day) was 31.6%. The MCV ([…], time 14 day) was 65.2 fL, the Mono ([…], time 14 day) was 4% and the Neu ([…], time 14 day) was 37%. The PT ([…], time 14 day) was 13.3 s, the Plat ([…], time 14 day) was 243.4 x10_4/uL and the RBC ([…], time 14 day) was 517.7 x10_4/ul. The Ret ([…], time 14 day) was 16.3%, the WBC ([…], time 14 day) was 216.8 x10_2/uL and the APTT ([…], time 28 day) was 18.9 s. The Bas ([…], time 28 day) was 0%, the Eos ([…], time 28 day) was 1.7% and the Fbg ([…], time 28 day) was 577 mg/dL. It also gave a Hb ([…], time 28 day) of 10.2 g/dL, a Ht ([…], time 28 day) of 34.4% and a Lym ([…], time 28 day) of 51.7%. It also gave an MCH ([…], time 28 day) of 18.1 pg, an MCHC ([…], time 28 day) of 29.3% and an MCV ([…], time 28 day) of 61.7 fL. For the same compound, the Mono ([…], time 28 day) was 4.7%, the Neu ([…], time 28 day) was 41% and the PT ([…], time 28 day) was 11.9 s. For the same compound, the Plat ([…], time 28 day) was 221.3 x10_4/uL, the RBC ([…], time 28 day) was 561.3 x10_4/ul and the Ret ([…], time 28 day) was 16.6%. The WBC ([…], time 28 day) was 217.4 x10_2/uL, the KIDNEY_L ([…], time 7 day) was 1 g and the KIDNEY_R ([…], time 7 day) was 1 g. It also gave a KIDNEY_TOTAL ([…], time 7 day) of 2 g, a KIDNEY_L ([…], time 14 day) of 1.1 g and a KIDNEY_R ([…], time 14 day) of 1.1 g. The KIDNEY_TOTAL ([…], time 14 day) was 2.2 g, the KIDNEY_L ([…], time 28 day) was 1.3 g and the KIDNEY_R ([…], time 28 day) was 1.2 g. For the same compound, the KIDNEY_TOTAL ([…], time 28 day) was 2.5 g, the LIVER ([…], time 7 day) was 10.6 g and the LIVER ([…], time 14 day) was 13.4 g. It also gave an LIVER ([…], time 28 day) of 15.2 g, an A/G ([…], time 7 day) of 0.9 and an ALP ([…], time 7 day) of 1360.6 IU/L. For the same compound, the ALT ([…], time 7 day) was 24.4 IU/L, the AST ([…], time 7 day) was 64 IU/L and the BUN ([…], time 7 day) was 39.8 mg/dL. It also gave a CRE ([…], time 7 day) of 0.3 mg/dL, a Ca ([…], time 7 day) of 10.6 mg/dL and a Cl ([…], time 7 day) of 104 meq/L. It also gave a DBIL ([…], time 7 day) of 0.032 mg/dL, a GLC ([…], time 7 day) of 154.2 mg/dL and an IP ([…], time 7 day) of 7.5 mg/dL. It also gave a K ([…], time 7 day) of 4.3 meq/L, an LDH ([…], time 7 day) of 96.8 IU/L and a Na ([…], time 7 day) of 141 meq/L. For the same compound, the PL ([…], time 7 day) was 157.6 mg/dL, the RALB ([…], time 7 day) was 2.4 g/dL and the TBIL ([…], time 7 day) was 0.066 mg/dL. It also gave a TC ([…], time 7 day) of 78.8 mg/dL, a TG ([…], time 7 day) of 104.2 mg/dL and a TP ([…], time 7 day) of 5.1 g/dL. It also gave a gamma-GTP ([…], time 7 day) of 5 IU/L, an A/G ([…], time 14 day) of 0.9 and an ALP ([…], time 14 day) of 806 IU/L. It also gave an ALT ([…], time 14 day) of 28.7 IU/L, an AST ([…], time 14 day) of 49.3 IU/L and a BUN ([…], time 14 day) of 18.3 mg/dL. The CRE ([…], time 14 day) was 0.3 mg/dL, the Ca ([…], time 14 day) was 10.5 mg/dL and the Cl ([…], time 14 day) was 106.3 meq/L. The DBIL ([…], time 14 day) was 0.0133 mg/dL, the GLC ([…], time 14 day) was 156.3 mg/dL and the IP ([…], time 14 day) was 5.3 mg/dL. The K ([…], time 14 day) was 4.5 meq/L, the LDH ([…], time 14 day) was 74 IU/L and the Na ([…], time 14 day) was 141.7 meq/L. For the same compound, the PL ([…], time 14 day) was 203 mg/dL, the RALB ([…], time 14 day) was 2.5 g/dL and the TBIL ([…], time 14 day) was 0.03 mg/dL. For the same compound, the TC ([…], time 14 day) was 96.7 mg/dL, the TG ([…], time 14 day) was 326.7 mg/dL and the TP ([…], time 14 day) was 5.4 g/dL. It also gave a gamma-GTP ([…], time 14 day) of 1.7 IU/L, an A/G ([…], time 28 day) of 0.8 and an ALP ([…], time 28 day) of 657 IU/L. The ALT ([…], time 28 day) was 23.3 IU/L, the AST ([…], time 28 day) was 47.3 IU/L and the BUN ([…], time 28 day) was 18.3 mg/dL. The CRE ([…], time 28 day) was 0.3 mg/dL, the Ca ([…], time 28 day) was 10 mg/dL and the Cl ([…], time 28 day) was 103 meq/L. The DBIL ([…], time 28 day) was 0.0067 mg/dL, the GLC ([…], time 28 day) was 149.3 mg/dL and the IP ([…], time 28 day) was 7 mg/dL. The K ([…], time 28 day) was 3.8 meq/L, the LDH ([…], time 28 day) was 92 IU/L and the Na ([…], time 28 day) was 141.7 meq/L. For the same compound, the PL ([…], time 28 day) was 181.7 mg/dL, the RALB ([…], time 28 day) was 2.3 g/dL and the TBIL ([…], time 28 day) was 0.06 mg/dL. The TC ([…], time 28 day) was 88.7 mg/dL, the TG ([…], time 28 day) was 261.7 mg/dL and the TP ([…], time 28 day) was 5.1 g/dL. For the same compound, the gamma-GTP ([…], time 28 day) was 1.7 IU/L.
